# Measurements taken from patent publication US20260345621A1, “GABAA RECEPTOR MODULATORS AND USES THEREOF” (Engrail Therapeutics, Inc., priority 2022, published 2026).
# Read-outs that look alike come from different tables or passages of the source.
# Columns and labels:
# [1] = Multiple ascending dose study, plasma pharmacokinetics; type: in vivo, human (healthy volunteers); settings: for Cmax at 288 h / half-life / AUC tau / Tmax at 288 h: Day 12; for AUC(0-t) at 24 h / Cmax at 24 h / Tmax at 24 h: Day 1
# Description: A clinical study was developed to evaluate safety, tolerability, pharmacokinetics, and pharmacodynamics of Compound 1 at plasma steady-state in 40 healthy human volunteers. Compound 1 (provided as Compound 1 phosphate) was administered to participants as multiple ascending doses of 0.5 mg (N=6), 1.0 mg (N=6), 1.5 mg (N=6), 2.0 mg (N=6), or 5.0 mg (N=6) once daily (QD) for 12 days.
# Blood samples were collected, and plasma concentrations were measured using a validated high performance liquid chromatography/liquid chromatography-mass spectrometry/mass spectrometry method. The PK parameters assessed included Cmax, Tmax, AUC from administration to the end of dosing (AUC0-t), AUC0-24, AUC0-inf, t1/2, terminal rate constant (λz), apparent total clearance of the drug from plasma (CL/F), and apparent volume of distribution during terminal phase after non-intravenous administration (Vz/F).
# The plasma concentration data for Compound 1 were summarized by dose level and the planned sampling time points using descriptive statistics (n, SD, median, minimum, maximum, geometric mean, and coefficient of variance (CV %) for the geometric mean) for the PK Analysis Set.
# Specifically, samples for PK analyses were taken on Day 1 and Day 12 pre-dose, 0.5, 1, 1.5, 3, 6, 8, 10, and 12 h post-dose, with additional samples taken on every dosing Day (24 hours after the previous day's dose) and 24, 72, 168, and 336 h after last dosing on Day 12. All individual Compound 1 concentrations were above the LLOQ of 0.0500 ng/mL at 0.5 h post-dose, except for 1 participant, for whom the concentration was above the LLOQ at 1 h post-dose.
# [2] = Stability of solutions/suspensions at room temperature; type: physicochemical
# Excerpt: The dosage forms provided herein may be prepared and placed in a container for storage at ambient or elevated temperature. […] This is beneficial because transportation of commercially viable dosage forms may benefit from stability at temperatures greater than those requiring refrigeration or sub-freezing environments during transportation and storage at the site of use.
# [3] = human, plasma, po, 1.5 mg, 1.5 mg oral QD, read-out: Cmax (mean)
# [4] = human, plasma, po, 1.5 mg, 1.5 mg oral QD, read-out: Cmax (median)
# [5] = human, plasma, po, 2 mg, 2.0 mg oral QD, read-out: Cmax (mean)
# [6] = human, plasma, po, 2 mg, 2.0 mg oral QD, read-out: Cmax (median)
# [7] = human, plasma, po, 5 mg, 5.0 mg oral QD, read-out: Cmax (mean)
# [8] = human, plasma, po, 5 mg, 5.0 mg oral QD, read-out: Cmax (median)
# [9] = human, plasma, 0.5 mg oral QD, read-out: Tmax (median)
# [10] = human, plasma, 1.0 mg oral QD, read-out: Tmax (median)
# [11] = human, plasma, 1.5 mg oral QD, read-out: Tmax (median)
# [12] = human, plasma, 2.0 mg oral QD, read-out: Tmax (median)
# [13] = human, plasma, 5.0 mg oral QD, read-out: Tmax (median)
structure (smiles),measurement,setting,value
"CC(C)(O)c1cnn2c(-c3ccc(F)c(-c4c(F)cccc4C#N)c3)cnc2n1 [Compound 1, 2′,6-difluoro-5′-(3-(2-hydroxypropan-2-yl)imidazo[1,2-b][1,2,4]triazin-7-yl)-[1,1′-biphenyl]-2-carbonitrile]",Cmax at 288 h,"[1]; human, plasma, po, 1 mg, 1.0 mg oral QD, read-out: Cmax (median)",22.6 ng/mL
same,half-life,"[1]; human, plasma, po, 1 mg, 1.0 mg oral QD, read-out: t1/2 (mean) (converted)",61 ± 29 h
same,half-life,"[1]; human, plasma, po, 1 mg, 1.0 mg oral QD, read-out: t1/2 (median) (converted)",58.2 h
same,AUC(0-t) at 24 h,"[1]; human, plasma, po, 1.5 mg, 1.5 mg oral QD, read-out: AUC0-24 (mean)",217 ± 48 ng·h/mL
same,AUC(0-t) at 24 h,"[1]; human, plasma, po, 1.5 mg, 1.5 mg oral QD, read-out: AUC0-24 (median)",227 ng·h/mL
same,Cmax at 24 h,[1]; [3],18.8 ± 7 ng/mL
same,Cmax at 24 h,[1]; [4],18.2 ng/mL
same,AUC tau,"[1]; human, plasma, po, 1.5 mg, 1.5 mg oral QD, read-out: AUCtau (mean)",706 ± 84 ng·h/mL
same,AUC tau,"[1]; human, plasma, po, 1.5 mg, 1.5 mg oral QD, read-out: AUCtau (median)",738 ng·h/mL
same,Cmax at 288 h,[1]; [3],41.7 ± 5 ng/mL
same,Cmax at 288 h,[1]; [4],42.6 ng/mL
same,half-life,"[1]; human, plasma, po, 1.5 mg, 1.5 mg oral QD, read-out: t1/2 (mean) (converted)",51 ± 18 h
same,half-life,"[1]; human, plasma, po, 1.5 mg, 1.5 mg oral QD, read-out: t1/2 (median) (converted)",49.1 h
same,AUC(0-t) at 24 h,"[1]; human, plasma, po, 2 mg, 2.0 mg oral QD, read-out: AUC0-24 (mean)",244 ± 48 ng·h/mL
same,AUC(0-t) at 24 h,"[1]; human, plasma, po, 2 mg, 2.0 mg oral QD, read-out: AUC0-24 (median)",226 ng·h/mL
same,Cmax at 24 h,[1]; [5],19.6 ± 4 ng/mL
same,Cmax at 24 h,[1]; [6],19.9 ng/mL
same,AUC tau,"[1]; human, plasma, po, 2 mg, 2.0 mg oral QD, read-out: AUCtau (mean)",873 ± 331 ng·h/mL
same,AUC tau,"[1]; human, plasma, po, 2 mg, 2.0 mg oral QD, read-out: AUCtau (median)",891 ng·h/mL
same,Cmax at 288 h,[1]; [5],49.8 ± 17 ng/mL
same,Cmax at 288 h,[1]; [6],48.2 ng/mL
same,half-life,"[1]; human, plasma, po, 2 mg, 2.0 mg oral QD, read-out: t1/2 (mean) (converted)",61 ± 26 h
same,half-life,"[1]; human, plasma, po, 2 mg, 2.0 mg oral QD, read-out: t1/2 (median) (converted)",52.3 h
same,AUC(0-t) at 24 h,"[1]; human, plasma, po, 5 mg, 5.0 mg oral QD, read-out: AUC0-24 (mean)",642 ± 125 ng·h/mL
same,AUC(0-t) at 24 h,"[1]; human, plasma, po, 5 mg, 5.0 mg oral QD, read-out: AUC0-24 (median)",609 ng·h/mL
same,Cmax at 24 h,[1]; [7],49.7 ± 13 ng/mL
same,Cmax at 24 h,[1]; [8],49.5 ng/mL
same,AUC(0-t) at 24 h,"[1]; human, plasma, po, 5 mg, 5.0 mg oral QD, read-out: highest individual AUC0-24",853 ng·h/mL
same,AUC tau,"[1]; human, plasma, po, 5 mg, 5.0 mg oral QD, read-out: AUCtau (mean)",1800 ng·h/mL
same,AUC tau,"[1]; human, plasma, po, 5 mg, 5.0 mg oral QD, read-out: AUCtau (median)",1800 ng·h/mL
same,Cmax at 288 h,[1]; [7],99.1 ng/mL
same,Cmax at 288 h,[1]; [8],106 ng/mL
same,AUC tau,"[1]; human, plasma, po, 5 mg, 5.0 mg oral QD, read-out: highest individual AUCtau",2170 ng·h/mL
same,half-life,"[1]; human, plasma, po, 5 mg, 5.0 mg oral QD, read-out: t1/2 (mean) (converted)",39 ± 9 h
same,half-life,"[1]; human, plasma, po, 5 mg, 5.0 mg oral QD, read-out: t1/2 (median) (converted)",37.1 h
same,concentration at 0.5 h,"[1]; human, plasma, po, 0.5 h post-dose, all except 1 participant, read-out: individual plasma concentrations versus LLOQ",> 0.05 ng/mL
same,Tmax,"[1]; human, plasma, po, Day 1 and Day 12, all doses except 5.0 mg on Day 1, read-out: Tmax (median)",3 h
same,Tmax at 24 h,[1]; [9],3 h
same,Tmax at 288 h,[1]; [9],3 h
same,Tmax at 24 h,[1]; [10],3 h
same,Tmax at 288 h,[1]; [10],3 h
same,Tmax at 24 h,[1]; [11],3 h
same,Tmax at 288 h,[1]; [11],3 h
same,Tmax at 24 h,[1]; [12],3 h
same,Tmax at 288 h,[1]; [12],3 h
same,Tmax at 24 h,[1]; [13],4.5 h
same,Tmax at 288 h,[1]; [13],3 h
same,Tmax at 24 h,"[1]; human, plasma, up to 2.0 mg oral QD, read-out: Tmax (median)",3 h
same,absorption,[1]; oral,rapidly absorbed
same,end of absorption and distribution phase,"[1]; plasma, after which elimination phase commenced",approximately 12 h
same,concentration decline profile,"[1]; plasma, oral QD",bi-exponential decline
same,variability in key PK parameters,[1]; up to 5.0 mg repeatedly for 12 days,acceptable
same,stability of standard solutions,[2]; 20 μg/mL,6 days
same,stability of samples in 0.5% TYLOSE MH 300,[2]; 0.12 to 7.2 mg/mL,8 days
